Data reported in paper PMC10616469, “Pharmacokinetics and tissue distribution of four major bioactive components of Cynanchum auriculatum extract: a UPLC–MS/MS study in normal and functional dyspepsia rats” (Frontiers in Pharmacology, 2023).
Where two headings read alike, the source gives them in different places.

Tests used:
[1] = Stability of the four compounds in tissue homogenate samples (QC samples); settings: mean ± s, n = 5
Protocol: (§1) Additionally, stomach and small intestinal tissues were diluted three times to obtain a tissue homogenate. Then, 300 μL of this tissue homogenate was mixed with 30 μL 1% formic acid-water, 20 μL IS, and 1.2 mL acetonitrile. The mixture was then vortexed for 5 min, sonicated for 10 min, and then stored at −20°C for 30 min. Subsequently, the mixture was centrifuged at 14,000 rpm for 10 min. The supernatant obtained was then transferred to another tube and evaporated to dryness at 37°C under nitrogen. The dried residue was reconstituted with 200 μL of the 50% methanol–water, and the centrifugation process was repeated. The obtained supernatant was then used for further analysis.
The appropriate amount of the reference substance was accurately weighed and dissolved in an appropriate amount of methanol to obtain stock solutions. The concentrations of the resulting stock solution were 0.9996 mg/mL for baishouwu benzophenone, 0.9518 mg/mL for deacylmetaplexigenin, 1.3660 mg/mL for qingyangshengenin, and 0.9898 mg/mL for syringic acid. Accurate volumes of each stock solution were mixed to obtain working solution, which was then serially diluted with methanol to provide standard working solutions. Similarly, QC samples of three concentrations (low, medium, and high) were prepared. All solutions were stored at −20°C for later use.
The following parameters of stability were assessed: short–term stability (24 h at room temperature), processed sample stability (24 h at 4°C), freeze–thaw stability (3 cycles), and auto–sampler stability (6 h at room temperature). QC samples of different concentrations were used for stability analysis.

[2] = rat, in vivo
Protocol: (§2) UPLC–MS/MS analysis was conducted using the ACQUITY UPLC system (Waters Corp., Milford, MA, United States) equipped with a Xevo–TQ mass spectrometer (Waters Corp., Milford, MA, United States) with an electrospray ionization (ESI) interface and triple quadrupole mass analyzer.
(§3) The ACQUITY UPLC® BEH C18 column (2.1 mm × 50 mm, 1.7 μm, Waters, United States) was used for separation and was maintained at 40°C. The mobile phase consisted of 0.1% formic acid in water (A) and 0.1% formic acid–acetonitrile (B) for PK study and 0.2% formic acid in water (A) and 0.2% formic acid–acetonitrile (B) for tissue distribution study. The mobile phase was eluted as a gradient, as follows: 0–0.5 min, 10% B; 0.5–3.0 min, 15% B; 3.0–3.2 min, 25% B; 3.2–4.0 min, 30% B; 4.0–4.5 min, 32% B; 4.5–6.0 min, 90% B; and 6.0 min, 10% B. The flow rate was set at 0.35 mL/min and the injection volume was 2 μL for the PK study and 1 μL for the tissue distribution study.
(§4) The four active components of CA were quantified using multiple reaction monitoring under negative ion mode. The following m/z transitions were chosen for quantification: baishouwu benzophenone 301.00→283.00, deacylmetaplexigenin 379.15→361.20, qingyangshengenin 499.20→137.00, syringic acid 197.20→181.95, and puerarin (internal standard, IS) 415.10→267.05. The collision energy was 15, 15, 35, 15, and 35 V, respectively ([Sun et al., 2022]). ESI mode was operated under the following conditions: capillary voltage, 1 kV; desolvation gas (N2), 1000 L/h; collision gas (Ar2), 150 L/h; desolvation temperature, 400°C; and source temperature, 120°C.
as §1
(§5) SD rats were randomly divided into normal and FD groups (n = 30 each) and orally administered 10 mL/kg of CA extract solution. The rats were sacrificed at 10, 30 min, 1, 2, and 4 h after administration (6 rats per time point). Subsequently, their heart, liver, spleen, lung, kidney, brain, small intestine, and stomach were removed. The tissue samples were then washed in saline solution and wiped with filter paper. Subsequently, all tissues were stored at −80°C until analysis.

[3] = Stability of the four compounds in plasma samples (QC samples); settings: n = 5
Protocol: In a 1.5 mL EP tube, 100 μL of plasma sample was mixed with 10 µL 1% formic acid–water, 10 μL IS (0.2011 μg/mL), and 400 μL acetonitrile. The mixture was then vortexed for 5 min, followed by sonication for 10 min at 40 kHz and centrifugation at 14,000 rpm for 10 min. The supernatant obtained was transferred to another tube and evaporated to dryness under a nitrogen vacuum at 37°C. The residue obtained was reconstituted with 150 μL of the initial mobile phase, and the centrifugation process was repeated. The supernatant thus obtained was then used for further analysis.
Similarly, QC samples of three concentrations (low, medium, and high) were prepared.
The specificity of the method was evaluated by comparing the retention times of analytes and IS in the blank matrix, blank matrix spiked with the four analytes and IS, and the samples after oral administration of CA extract. Calibration curves were constructed by comparing the ratio of peak areas of the four analytes to that of IS versus the concentration of the four analytes. Calibration curves were fitted via linear weighted (1/X ^ 2 ) least–squares regression. The intra–and inter–day precision and accuracy were estimated by analyzing QC samples at different concentrations on the same day and three consecutive validation days, respectively. The extraction recovery was evaluated by determining the peak area of analytes in QC samples compared with that in extracted matrix samples. The relative standard deviation of the extraction recovery of analytes at each level was retained at ≤20.0%. The following parameters of stability were assessed: short–term stability (24 h at room temperature), processed sample stability (24 h at 4°C), freeze–thaw stability (3 cycles), and auto–sampler stability (6 h at room temperature). QC samples of different concentrations were used for stability analysis.

[4] = PK study: plasma pharmacokinetics after oral administration of CA extract in normal and FD rats (UPLC-MS/MS); type: in vivo; settings: Sprague-Dawley, rat; for AUC(0-inf) / AUC(0-t) / CL/F / Cmax / half-life: n = 6; for Vd/F: n = 6, read-out: Vz/F
Protocol: For PK experiments, an appropriate amount of the CA extract was weighed to prepare a 0.10 g/mL solution using physiological saline. Briefly, 12 SD rats were randomly assigned to normal and FD groups and were orally administered the prepared CA sample (10 mL/kg body weight). For assessment, 0.3 mL of blood was collected into heparinized tubes via the caudal vein before dosing and at 2, 5, 10, 15, 20, 30, and 45 min, and 1, 2, 4, 8, 12, 24, and 48 h after administration. Blood samples were then immediately centrifuged at 4,500 rpm for 15 min, and the obtained plasma samples were stored at −20°C until determination.
The PK parameters were analyzed using the non–compartment analysis using the WinNonLin 8.2 software (Phoenix, United States). All the data were expressed as mean ± standard deviation (SD). The normal and FD groups were compared using independent samples t–test in SPSS 22.0. Results with p values < 0.05 were considered statistically significant.

[5] = Tissue distribution study after oral administration of CA extract in normal and FD rats; settings: distribution found in rat brain
Protocol: as §2, §3, §4, §1, §5

[6] = Brain homogenate, highest QC (ng·mL^-1): Baishouwu benzophenone 131.10, Syringic acid 320.04, Qingyangshengenin 62.12, Deacylmetaplexigenin 677.19
[7] = Brain homogenate, lowest QC (ng·mL^-1): Baishouwu benzophenone 3.34, Syringic acid 8.18, Qingyangshengenin 1.58, Deacylmetaplexigenin 17.26
[8] = Brain homogenate, middle QC (ng·mL^-1): Baishouwu benzophenone 20.88, Syringic acid 51.14, Qingyangshengenin 9.90, Deacylmetaplexigenin 107.87
[9] = Heart homogenate, highest QC (ng·mL^-1): Baishouwu benzophenone 111.56, Syringic acid 340.93, Qingyangshengenin 350.76, Deacylmetaplexigenin 1522.88
[10] = Heart homogenate, lowest QC (ng·mL^-1): Baishouwu benzophenone 2.66, Syringic acid 8.11, Qingyangshengenin 8.35, Deacylmetaplexigenin 36.24
[11] = Heart homogenate, middle QC (ng·mL^-1): Baishouwu benzophenone 18.96, Syringic acid 57.96, Qingyangshengenin 59.63, Deacylmetaplexigenin 258.89
[12] = Kidney homogenate, highest QC (ng·mL^-1): Baishouwu benzophenone 768.40, Syringic acid 1230.44, Qingyangshengenin 844.98, Deacylmetaplexigenin 2249.71
[13] = Kidney homogenate, lowest QC (ng·mL^-1): Baishouwu benzophenone 9.84, Syringic acid 15.75, Qingyangshengenin 10.82, Deacylmetaplexigenin 28.80
[14] = Kidney homogenate, middle QC (ng·mL^-1): Baishouwu benzophenone 81.96, Syringic acid 131.25, Qingyangshengenin 90.13, Deacylmetaplexigenin 239.97
[15] = Liver homogenate, highest QC (ng·mL^-1): Baishouwu benzophenone 313.75, Syringic acid 268.07, Qingyangshengenin 4484.13, Deacylmetaplexigenin 3093.35
[16] = Liver homogenate, lowest QC (ng·mL^-1): Baishouwu benzophenone 1.77, Syringic acid 22.34, Qingyangshengenin 25.26, Deacylmetaplexigenin 16.38
[17] = Liver homogenate, middle QC (ng·mL^-1): Baishouwu benzophenone 27.19, Syringic acid 89.35, Qingyangshengenin 386.62, Deacylmetaplexigenin 268.09
[18] = Lung homogenate, highest QC (ng·mL^-1): Baishouwu benzophenone 630.29, Syringic acid 662.80, Qingyangshengenin 385.86, Deacylmetaplexigenin 1513.71
[19] = Lung homogenate, lowest QC (ng·mL^-1): Baishouwu benzophenone 17.66, Syringic acid 18.57, Qingyangshengenin 10.81, Deacylmetaplexigenin 42.42
[20] = Lung homogenate, middle QC (ng·mL^-1): Baishouwu benzophenone 105.98, Syringic acid 111.44, Qingyangshengenin 64.88, Deacylmetaplexigenin 254.52
[21] = Small intestine homogenate, highest QC (ng·mL^-1): Baishouwu benzophenone 39.22, Syringic acid 773.28, Qingyangshengenin 1726.39, Deacylmetaplexigenin 1206.41
[22] = Small intestine homogenate, lowest QC (ng·mL^-1): Baishouwu benzophenone 0.46, Syringic acid 9.31, Qingyangshengenin 20.77, Deacylmetaplexigenin 14.52
[23] = Small intestine homogenate, middle QC (ng·mL^-1): Baishouwu benzophenone 4.97, Syringic acid 97.95, Qingyangshengenin 218.68, Deacylmetaplexigenin 152.81
[24] = Spleen homogenate, highest QC (ng·mL^-1): Baishouwu benzophenone 658.88, Syringic acid 752.66, Qingyangshengenin 418.52, Deacylmetaplexigenin 1979.74
[25] = Spleen homogenate, lowest QC (ng·mL^-1): Baishouwu benzophenone 10.98, Syringic acid 12.54, Qingyangshengenin 6.98, Deacylmetaplexigenin 33.00
[26] = Spleen homogenate, middle QC (ng·mL^-1): Baishouwu benzophenone 87.85, Syringic acid 100.35, Qingyangshengenin 55.80, Deacylmetaplexigenin 263.97
[27] = Stomach homogenate, highest QC (ng·mL^-1): Baishouwu benzophenone 47.06, Syringic acid 257.76, Qingyangshengenin 1285.45, Deacylmetaplexigenin 1665.65
[28] = Stomach homogenate, lowest QC (ng·mL^-1): Baishouwu benzophenone 0.63, Syringic acid 3.44, Qingyangshengenin 17.14, Deacylmetaplexigenin 22.21
[29] = Stomach homogenate, middle QC (ng·mL^-1): Baishouwu benzophenone 6.28, Syringic acid 34.37, Qingyangshengenin 171.39, Deacylmetaplexigenin 222.09
[30] = high QC (nominal 1666.00 / 3172.53 / 569.17 / 206.21 ng·mL^-1)
[31] = low QC (nominal 52.06 / 49.57 / 8.89 / 1.61 ng·mL^-1)
[32] = medium QC (nominal 208.25 / 396.57 / 71.13 / 25.78 ng·mL^-1)
[33] = FD group rats, oral CA extract (0.10 g/mL solution, 10 mL/kg)
[34] = Normal group rats, oral CA extract (0.10 g/mL solution, 10 mL/kg)

For `CC(=O)C1(O)CCC2(O)C3(O)CC=C4CC(O)CCC4(C)C3CC(O)C12C` (stereo not shown) [Deacylmetaplexigenin], the “Auto-sampler for 6 h Measured concentration” value (from here on “Auto-sampler”) [1, 6] was 639.39 ± 12.53 ng/mL, the “Three freeze-thaw cycles Measured concentration” value [1, 6] was 657.30 ± 18.60 ng/mL and the “Auto-sampler” value [1, 7] was 16.37 ± 0.20 ng/mL. The “Three freeze-thaw cycles Measured concentration” value [1, 7] was 16.11 ± 0.43 ng/mL, the “Auto-sampler” value [1, 8] was 106.81 ± 0.35 ng/mL and the “Three freeze-thaw cycles Measured concentration” value [1, 8] was 107.57 ± 1.64 ng/mL. For the same compound, the “Auto-sampler” value [1, 9] was 1545.69 ± 28.28 ng/mL, the “Three freeze-thaw cycles Measured concentration” value [1, 9] was 1530.72 ± 31.74 ng/mL and the “Auto-sampler” value [1, 10] was 29.91 ± 0.63 ng/mL. For the same compound, the “Three freeze-thaw cycles Measured concentration” value [1, 10] was 30.14 ± 0.33 ng/mL, the “Auto-sampler” value [1, 11] was 253.92 ± 7.65 ng/mL and the “Three freeze-thaw cycles Measured concentration” value [1, 11] was 251.51 ± 4.47 ng/mL. The “Auto-sampler” value [1, 12] was 2268.44 ± 53.12 ng/mL, the “Three freeze-thaw cycles Measured concentration” value [1, 12] was 2270.72 ± 48.43 ng/mL and the “Auto-sampler” value [1, 13] was 30.96 ± 0.89 ng/mL. For the same compound, the “Three freeze-thaw cycles Measured concentration” value [1, 13] was 30.51 ± 1.21 ng/mL, the “Auto-sampler” value [1, 14] was 267.87 ± 13.29 ng/mL and the “Three freeze-thaw cycles Measured concentration” value [1, 14] was 266.54 ± 9.78 ng/mL. The “Auto-sampler” value [1, 15] was 3350.30 ± 128.16 ng/mL, the “Three freeze-thaw cycles Measured concentration” value [1, 15] was 3302.83 ± 129.48 ng/mL and the “Auto-sampler” value [1, 16] was 15.66 ± 0.68 ng/mL. For the same compound, the “Three freeze-thaw cycles Measured concentration” value [1, 16] was 15.51 ± 0.68 ng/mL, the “Auto-sampler” value [1, 17] was 249.04 ± 7.02 ng/mL and the “Three freeze-thaw cycles Measured concentration” value [1, 17] was 245.11 ± 4.40 ng/mL. For the same compound, the “Auto-sampler” value [1, 18] was 1544.16 ± 36.02 ng/mL, the “Three freeze-thaw cycles Measured concentration” value [1, 18] was 1549.77 ± 41.79 ng/mL and the “Auto-sampler” value [1, 19] was 38.33 ± 2.37 ng/mL. The “Three freeze-thaw cycles Measured concentration” value [1, 19] was 37.62 ± 2.38 ng/mL, the “Auto-sampler” value [1, 20] was 243.55 ± 12.09 ng/mL and the “Three freeze-thaw cycles Measured concentration” value [1, 20] was 240.11 ± 10.98 ng/mL. The “Auto-sampler” value [1, 21] was 1293.63 ± 65.40 ng/mL, the “Three freeze-thaw cycles Measured concentration” value [1, 21] was 1296.24 ± 110.99 ng/mL and the “Auto-sampler” value [1, 22] was 12.77 ± 1.27 ng/mL. The “Three freeze-thaw cycles Measured concentration” value [1, 22] was 12.39 ± 1.33 ng/mL, the “Auto-sampler” value [1, 23] was 150.09 ± 2.73 ng/mL and the “Three freeze-thaw cycles Measured concentration” value [1, 23] was 154.01 ± 1.23 ng/mL. For the same compound, the “Auto-sampler” value [1, 24] was 1990.73 ± 48.18 ng/mL, the “Three freeze-thaw cycles Measured concentration” value [1, 24] was 1950.06 ± 62.22 ng/mL and the “Auto-sampler” value [1, 25] was 31.95 ± 1.48 ng/mL. The “Three freeze-thaw cycles Measured concentration” value [1, 25] was 32.15 ± 1.58 ng/mL, the “Auto-sampler” value [1, 26] was 232.19 ± 3.53 ng/mL and the “Three freeze-thaw cycles Measured concentration” value [1, 26] was 247.56 ± 6.23 ng/mL. The “Auto-sampler” value [1, 27] was 1622.87 ± 76.11 ng/mL, the “Three freeze-thaw cycles Measured concentration” value [1, 27] was 1662.82 ± 50.13 ng/mL and the “Auto-sampler” value [1, 28] was 21.14 ± 1.50 ng/mL. The “Three freeze-thaw cycles Measured concentration” value [1, 28] was 21.58 ± 1.95 ng/mL, the “Auto-sampler” value [1, 29] was 244.68 ± 7.59 ng/mL and the “Three freeze-thaw cycles Measured concentration” value [1, 29] was 245.34 ± 9.19 ng/mL. The “time after oral administration at which almost completely metabolized in tissues” value ([2]; Sprague-Dawley) was 4 h, the “time of peak in most of organ tissues” value ([2]; Sprague-Dawley, po) was 0.17 to 0.5 h and the “tissue with the highest concentration” value ([2]; po) was “stomach and small intestine”. For the same compound, the “Measured concentration, 4°C for 24 h” value [3, 30] was 3164.75 ± 84.97 ng/mL, the “Measured concentration, Three freeze-thaw cycles” value [3, 30] was 3053.63 ± 57.47 ng/mL and the “Measured concentration, 4°C for 24 h” value [3, 31] was 52.01 ± 2.68 ng/mL. The “Measured concentration, Three freeze-thaw cycles” value [3, 31] was 53.08 ± 3.47 ng/mL, the “Measured concentration, 4°C for 24 h” value [3, 32] was 406.61 ± 10.59 ng/mL and the “Measured concentration, Three freeze-thaw cycles” value [3, 32] was 352.32 ± 6.40 ng/mL. For the same compound, the Tmax ([4]; 1 g/kg, oral CA extract, normal and FD rats, read-out: time of peak concentration (Tmax)) was 20 to 30 min, the AUC(0-inf) [4, 33] was 13900 ng·h/mL and the AUC(0-t) [4, 33] was 13300 ng·h/mL. For the same compound, the CL/F [4, 33] was 16.5 mL/min/kg, the Cmax [4, 33] was 4510 ± 241 ng/mL and the half-life [4, 33] was 772 ± 454 min. The Tmax ([4]; FD group rats, oral CA extract (0.10 g/mL solution, 10 mL/kg), n = 6, read-out: Tmax) was 19.8 ± 4.8 min, the Vd/F [4, 33] was 18.1 ± 10.6 L/kg and the AUC(0-inf) [4, 34] was 12300 ng·h/mL. The AUC(0-t) [4, 34] was 11600 ng·h/mL, the CL/F [4, 34] was 19.2 mL/min/kg and the Cmax [4, 34] was 4680 ± 499 ng/mL. It also gave a half-life [4, 34] of 602 ± 190 min, a Tmax ([4]; Normal group rats, oral CA extract (0.10 g/mL solution, 10 mL/kg), n = 6, read-out: Tmax) of 25.2 ± 6.6 min and a Vd/F [4, 34] of 16 ± 3.79 L/kg. The “crossing of the blood-brain barrier” value [5] was “could cross the blood-brain barrier”.
